# “And” between values parts separate entries of the source, which are not always exact repeats. Equal values may be shown once. After the bases stand the sugars from the 5' end (letter, count) and the backbone: PS all phosphorothioate, else s phosphorothioate and o phosphodiester by linkage. Methylation of C is not given here. e = 2'-O-(2-methoxyethyl) (MOE); d = 2'-deoxy (DNA)
# Target: DGAT2
# Conditions: ASO
Sequence,"target mRNA inhibition (HepG2, 0.12 µM)","target mRNA inhibition (HepG2, 2.5 µM)","target mRNA inhibition (HepG2, 10 µM)","target mRNA inhibition (HepG2, 20 µM) [%]"
"CACCAGCTGGATGGGAAAGT (sugars e5 d10 e5, PS)",31%,,,
"CCTTCCAGGGAATAAAATAC (sugars e5 d10 e5, PS)",3%,,,
"CCTAAAGGTGAAGACTGGCT (sugars e5 d10 e5, PS)",,77% and 79%,93% and 94%,
"ATCCAAAGATATAGTTCCTG (sugars e5 d10 e5, PS)",39%,,,
"CCCATCATGACCAGGCCCTG (sugars e5 d10 e5, PS)",,31%,77%,
"AGGAGTTTGTGTTTCCCATT (sugars e5 d10 e5, PS)",39%,,,
"TTAAGCTTTGTGACCTTGGG (sugars e5 d10 e5, PS)",67%,,,
"TACCTTATCTTTGTCCACAT (sugars e5 d10 e5, PS)",,,78% and 91%,
"TGACTGCATTCTTGCCAGGC (sugars e5 d10 e5, PS)",,16%,69%,
"CACTCTGTGATGCTCTGGAG (sugars e5 d10 e5, PS)",,60%,84%,
"TAGCATTGCCACTCCCATTC (sugars e2 d13 e5, PS)",60%,,,
"AGCATTGCCACTCCCATTCT (sugars e5 d10 e5, PS)",74%,,,
"TGCAATGTTGCCATCATACT (sugars e5 d10 e5, PS)",,65% and 49%,91% and 83%,
"ATGCCCTTGCTGTAGGACCC (sugars e5 d10 e5, PS)",,79% and 73%,90%,
"GCTTGGAGTAGGGCACCAGC (sugars e5 d10 e5, PS)",45%,,,
"CTTTTAAATAACCCACAGAC (sugars e5 d10 e5, PS)",0%,,,
"AAGCCTGGATGGTGGTTGCA (sugars e5 d10 e5, PS)",,82% and 66%,91% and 82%,
"CAGGTCTATGCTGCAGTCAT (sugars e5 d10 e5, PS)",,53% and 45%,89% and 82%,
"CCACTGTTGCTGAGCTCATG (sugars e5 d10 e5, PS)",,68%,88%,
"CAGCCTGGACAAGTCCTGCC (sugars e3 d14 e3, PS)",72%,,,
"GCAGGGTTACCCAGCCACTG (sugars e5 d10 e5, PS)",,85% and 67%,75% and 88%,
"GGATACTCAGAAGAGCAGTG (sugars e5 d10 e5, PS)",,60%,80%,
"GCACCTGTTACTACATGTCT (sugars e5 d10 e5, PS)",,87% and 78%,92% and 84%,

Sequence,"target mRNA inhibition (HepG2, 0.12 µM)","target mRNA inhibition (HepG2, 2.5 µM)","target mRNA inhibition (HepG2, 10 µM)","target mRNA inhibition (HepG2, 20 µM) [%]"
"CAGCAGGTTGTGTGTCTTCA (sugars e3 d14 e3, PS)",47%,,,
"AAAAACCACTGTTGCTGAGC (sugars e5 d10 e5, PS)",,62%,92%,
"TGGAGCTCAGAGACTCAGCC (sugars e2 d16 e2, PS)",37%,,,
"CTCTGCTTCTTGGGCATCTG (sugars e5 d10 e5, PS)",,78% and 70%,90% and 85%,
"AAATGGTAGCCCCTTGTTGC (sugars e5 d10 e5, PS)",32%,,,
"AAGCCCTTGCGGTTCCGCAG (sugars e5 d10 e5, PS)",67%,,,
"GACAATGAGTAAGGGTATTC (sugars e5 d10 e5, PS)",,48%,83%,
"TCTTCACCAGCTGGATGGGA (sugars e5 d10 e5, PS)",50%,,,
"AAAAACATGACAGCCAGGGT (sugars e5 d10 e5, PS)",31%,,,
"TGAGGCCAAGGACAGAGGTT (sugars e5 d10 e5, PS)",,59%,85%,
"GGAGTAGGGCACCAGCCCCC (sugars e5 d10 e5, PS)",17%,,,
"GTGTCTTCACCAGCTGGATG (sugars e5 d10 e5, PS)",49%,16%,,
"TGGCTCAGTTCACCTCCAGG (sugars e5 d10 e5, PS)",,53%,86%,
"GTGCAGAATATGTACATGAG (sugars e5 d10 e5, PS)",43%,,,
"CACAGTTAAAGTGTGGTACA (sugars e5 d10 e5, PS)",,52%,88%,
"GCAGGACCCCGGAGTAGGCG (sugars e2 d13 e5, PS)",68%,,,
"CTCACCCCTGTACTCAGCCC (sugars e5 d10 e5, PS)",,72%,88%,
"CATGGAGCTCAGAGACTCAG (sugars e5 d10 e5, PS)",65%,,,
"CAGAAGGCACCCAGGCCCAT (sugars e5 d10 e5, PS)",33%,,,
"GTGTCGGAGGAGAAGAGGCC (sugars e5 d10 e5, PS)",52%,,,
"AACACTCACAGCACTTTACC (sugars e5 d10 e5, PS)",4%,,,
"AGGTTGTGTGTCTTCACCAG (sugars e2 d13 e5, PS)",61%,,,
"CAGGGCCTCCATGTACATGG (sugars e5 d10 e5, PS)",37%,,,

Sequence,"target mRNA inhibition (HepG2, 0.12 µM)","target mRNA inhibition (HepG2, 2.5 µM)","target mRNA inhibition (HepG2, 10 µM)","target mRNA inhibition (HepG2, 20 µM) [%]"
"GCTCACTTCTGTGGCCTCTG (sugars e5 d10 e5, PS)",41%,,,
"TATTTGAAGATAAAGTCAGA (sugars e5 d10 e5, PS)",0%,,,
"GCACTCTCTCTGCACACTCC (sugars e5 d10 e5, PS)",,61%,87%,
"ATGGGAAAGTAGTCTCGAAA (sugars e5 d10 e5, PS)",0%,,,
"CAGCCTGGACAAGTCCTGCC (sugars e5 d10 e5, PS)",84%,,81% and 90% and 88%,86
"TCAGAGACTCAGCCGCACCC (sugars e3 d14 e3, PS)",41%,,,
"GCCACTCCCAGTACAAGGAA (sugars e5 d10 e5, PS)",0%,,,
"TGTTATCCGAGTTGAATTCT (sugars e5 d10 e5, PS)",45%,,,
"CTTAGGCATGCTTCCTCCCA (sugars e5 d10 e5, PS)",,57%,84%,
"CCACAGCGATAATCACA (sugars e3 d10 e4, PS)",,63% and 60%,84% and 75%,
"TTGCCACTCCCATTCTTTGA (sugars e5 d10 e5, PS)",39% and 57%,,,
"GCAATGCCAATGCCTAGGTC (sugars e5 d10 e5, PS)",,87% and 89%,82% and 91%,
"GATAGCATTGCCACTCCCAT (sugars e5 d10 e5, PS)",66%,,,
"CTGACCTCAGGGTGATCAAG (sugars e5 d10 e5, PS)",31%,,,
"GTGGTCAGCAGGTTGTGTGT (sugars e5 d10 e5, PS)",44%,0%,,
"CCAACAGTGGTGATGGGCTT (sugars e5 d10 e5, PS)",60%,,,
"AAAGGAGTTTGTGTTTCCCA (sugars e5 d10 e5, PS)",,73%,91%,
"TTTCCTTCTTAAAAAAGACC (sugars e5 d10 e5, PS)",9%,,,
"ATCAGCTATAGAATCAGACA (sugars e5 d10 e5, PS)",,16%,75%,
"GTTGCCATCATACTAGACTA (sugars e5 d10 e5, PS)",,65%,85%,
"TTGTGTGTCTTCACCAGCTG (sugars e2 d13 e5, PS)",71%,,,
"TCAGAGACTCAGCCGCACCC (sugars e2 d13 e5, PS)",56%,,,
"AGCATTGCCACTCCCATTCT (sugars e3 d14 e3, PS)",67%,,,

Sequence,"target mRNA inhibition (HepG2, 0.12 µM)","target mRNA inhibition (HepG2, 2.5 µM)","target mRNA inhibition (HepG2, 10 µM)","target mRNA inhibition (HepG2, 20 µM) [%]"
"TTGGAGTAGGGCACCAGCCC (sugars e5 d10 e5, PS)",16%,,,
"GCAGTCTGCCTGATTCCCTT (sugars e5 d10 e5, PS)",,60%,93%,
"GGATAGTCGATTTACCAGAA (sugars e5 d10 e5, PS)",,69%,85%,
"AGGCATGGAGCTCAGAGACT (sugars e5 d10 e5, PS)",69% and 83%,39%,84%,51
"CATCACATGCTTATCCTTGA (sugars e5 d10 e5, PS)",41%,,,
"TGCCACTCCCATTCTTTGAA (sugars e5 d10 e5, PS)",,0%,62%,
"AGGCAAAGTAACATACCTGC (sugars e5 d10 e5, PS)",,71% and 74%,94% and 91%,
"TCTCCTCTGCTTCTTGGGCA (sugars e5 d10 e5, PS)",,69% and 67%,85% and 82%,
"GATGGCAACCTAAGGAGTGA (sugars e5 d10 e5, PS)",37%,,,
"TAAGGGTATTCTGCTCATAA (sugars e5 d10 e5, PS)",,63%,93%,
"TTCACCAGCTGGATGGGAAA (sugars e5 d10 e5, PS)",26%,,,
"CAGGCATGGAGCTCAGAGAC (sugars e3 d14 e3, PS)",76%,,,
"GTCAGCAGGTTGTGTGTCTT (sugars e3 d14 e3, PS)",61%,,,
"CTAAGCTTATTAGGTGTCTT (sugars e5 d10 e5, PS)",,68%,81%,
"GCGCCACACAGCCCAGTTTC (sugars e5 d10 e5, PS)",31%,,,
"CTTCTTAAAAAAGACCTAAC (sugars e5 d10 e5, PS)",26%,,,
"GCTGGTGTTCTACAAGCTGC (sugars e5 d10 e5, PS)",,79% and 81% and 83%,90% and 86% and 88%,
"TCACCAGGGCCTCCATGTAC (sugars e2 d13 e5, PS)",3%,,,
"CAGGACCCCGGAGTAGGCGG (sugars e3 d14 e3, PS)",53%,,,
"AAGGCCAGGCCCCTTCTGAA (sugars e5 d10 e5, PS)",32%,,,
"AAACTTAGGCATGCTTCCTC (sugars e5 d10 e5, PS)",,84%,56%,
"CATGGAGCTCAGAGACTCAG (sugars e2 d13 e5, PS)",71%,,,

# From the OligoGym collection
